The target of one assay is T1, hM4 receptors (Homo sapiens, UniProt P08173).
T1 construct: expressed in transfected cells; host or cells: CHO cells
T1 sequence (P08173 1-479): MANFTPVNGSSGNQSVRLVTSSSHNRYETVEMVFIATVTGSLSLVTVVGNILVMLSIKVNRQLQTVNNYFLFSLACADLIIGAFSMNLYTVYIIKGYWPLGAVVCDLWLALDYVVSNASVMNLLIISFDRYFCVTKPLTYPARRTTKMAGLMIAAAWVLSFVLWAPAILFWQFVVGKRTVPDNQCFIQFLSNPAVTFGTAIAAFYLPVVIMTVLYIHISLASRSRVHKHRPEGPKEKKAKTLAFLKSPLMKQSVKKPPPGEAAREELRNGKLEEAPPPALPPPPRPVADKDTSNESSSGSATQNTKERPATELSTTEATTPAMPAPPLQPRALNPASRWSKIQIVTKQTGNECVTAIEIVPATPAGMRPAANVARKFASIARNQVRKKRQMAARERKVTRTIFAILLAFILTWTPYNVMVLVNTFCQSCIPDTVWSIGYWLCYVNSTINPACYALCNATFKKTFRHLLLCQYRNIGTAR
Put plainly: Human M4 PAM pERK assay. Type of assay: cell-based. The note with it: CHO cells expressing hM4; with EC20 of acetylcholine (10 nM final). The method, then:
(§1) Chinese hamster ovary (CHO) cells expressing either hM4 or rM4 receptors were frozen in assay ready vials (5×10^6 cells/vial) after bulking-up in culture. The day before an assay, vial(s) were thawed and cells seeded in 384 well white proxiplates at 1000/well for hM4 cells and at 2000/well for rM4 cells, in 10 μL of growth media (Hams/F12 with glutamax and 10% FCS) and incubated overnight at 37° C./5% CO2.
(§2) On the following morning, the growth media was removed by ‘flicking out’ over a bin, patting the inverted plate onto tissue, and then replacing with 10 μL of wash media (Hams/F12 with glutamax and 8 mM HEPES, NB: serum free). Then, the wash media was removed in the same way and replaced with 8 μL/well of the serum free media. Plates were then re-incubated for a further 4 hours at 37° C./5% CO2.
(§3) Compounds for testing were solubilized to 10 mM in DMSO and compound addition plates, consisting of ten-point concentration response curves (CRC) in duplicate points (10 μM top concentration, ½ log dilution series), were prepared by acoustic dispensing and the compound management group.
(§4) After the 4-hour incubation in serum free media, a 4 μL aliquot of the 3× compound solution containing an EC20 of acetylcholine (10 nM final concentration) was added to the cell plate using a 384 well plate to plate transfer. Then, the plate lid was replaced, and the cells incubated for 5 mins at 37° C./5% CO2. Following this final incubation, all cellular processes were stopped by the addition of 4 μL/well of lysis and blocking buffer and plates were incubated for 30 minutes at RT on an orbital shaker (gentle setting). Then, a final addition of 4 μL/well of antibody detection mix, containing both the Europium-Cryptate (donor) and d2 (acceptor) tagged detection components, was added followed by a further 2-hour incubation at RT, and then the plate was read using a TR-FRET (time resolved fluorescence resonance energy transfer) based protocol.

The target in the next assay is T2, rM4 receptors (Rattus norvegicus, UniProt P08485).
T2 construct: expressed in transfected cells; host or cells: CHO cells
T2 sequence (P08485 1-478): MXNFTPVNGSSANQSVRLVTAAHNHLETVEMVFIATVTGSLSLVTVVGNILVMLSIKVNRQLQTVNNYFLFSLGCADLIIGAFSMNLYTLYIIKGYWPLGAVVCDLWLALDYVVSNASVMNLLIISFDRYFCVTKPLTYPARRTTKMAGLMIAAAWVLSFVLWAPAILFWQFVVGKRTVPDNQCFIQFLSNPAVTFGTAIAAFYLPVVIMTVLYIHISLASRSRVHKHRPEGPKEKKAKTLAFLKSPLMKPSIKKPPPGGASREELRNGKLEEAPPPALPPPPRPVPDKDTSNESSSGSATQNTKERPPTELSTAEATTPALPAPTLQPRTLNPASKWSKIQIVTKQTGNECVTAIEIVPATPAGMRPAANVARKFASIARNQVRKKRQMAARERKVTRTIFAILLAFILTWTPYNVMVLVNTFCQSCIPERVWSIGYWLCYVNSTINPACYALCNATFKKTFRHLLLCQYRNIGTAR
Put plainly: Rat M4 PAM pERK assay. Type of assay: cell-based. The note with it: CHO cells expressing rM4; with EC20 of acetylcholine (10 nM final). As for the experimental part:
as §1, §2, §3, §4

For a further assay, the target named is T3, human M4 receptor (Homo sapiens, UniProt P08173).
T3 construct: expressed in transfected cells; host or cells: CHO-K1 cells (membrane preparation)
T3 sequence (P08173 1-479): T1 sequence (P08173 1-479)
Description: M4 GTPγS PAM assay. The note with it: membranes of CHO-K1 cells stably expressing human M4; EC20 acetylcholine 40 nM. It counts as biochemical. As for the experimental part:
The M4 GTPγS PAM method was used. Membranes were prepared for GTPgS binding assays from CHO-K1 cells stably expressing human M4 receptor. Briefly, cells were grown in 5-layer cell culture flasks. Cells were washed with 50 mL of PBS and then dissociated with 0.05% trypsin. Dissociated cells were then collected by centrifugation at 650×g for 8 minutes at 4° C. Pellets were washed again in PBS by centrifugation and resuspended in 30 mL of 20 mM HEPES, 10 mM EDTA, pH 7.4. After sitting on ice for 30 min, membranes were collected by centrifugation at 50000×g for 15′ at 4° C., resuspended in 30 mL of 20 mM HEPES, 0.1 mM EDTA, pH 7.4 and collected again by centrifugation. Pellets were then washed twice by centrifugation in 30 mL of 20 mM HEPES, pH 7.4, and stored at −80° C. until the day of the assay. On the day of the assay, pellets were thawed on ice and resuspended in 1 mL of 20 mM HEPES, pH 7.4, 10 mM MgCl2, 100 mM NaCl using dounce homogenization. Membrane protein concentration is determined by BCA protein assay (Promega, Madison, WI) according to Promega guidelines.
On the day of the assay, serial dilutions of test PAM compounds were brought up in assay buffer (20 mM HEPES, 10 mM MgCl2, 100 mM NaCl) at 4× final assay concentration. […] of membrane homogenates (containing […] of membrane protein) were prepared in assay buffer supplemented with GDP at 4× final assay concentration (final assay concentration of GDP is 5 μM for M2 and 0.1 μM for M4) and dispensed into 96 well polypropylene, U-bottom Greiner plates. […] of vehicle or test PAM compound at 4× of final assay concentration diluted in the assay buffer were added to membrane and plates are incubated for 10-15 minutes at room temperature with gentle shaking. Then, […] of EC20 acetylcholine in assay buffer at 4× final assay concentration was added to assay plates (EC20 final assay concentrations was 40 nM for human M4).
Plates were then incubated, with shaking, for an additional 10-15 minutes. 25 mL of 0.4 nM ^35S-GTP (Perkin Elmer, Waltham, MA) in assay buffer was added to assay mixtures. The binding reaction is left on the shaker for 1 hour at room temperature. Membranes in assay reactions were then transferred to GF/C filter plates (Unifilter, Perkin Elmer) and washed three times using a FilterMate Harvester (Perkin Elmer) with cold assay buffer containing no GDP. Filter plates were then dried at 40° C. overnight followed by the addition of […] of Beta Plate Scintillation liquid. Plates are top and bottom sealed before being read on TopCount scintillation counter (Perkin Elmer, Waltham, MA).

Consider `Cc1c2c(n(C)c(=O)c1C)CN(C(=O)C[C@@H]1C[C@H]1c1ccc(C(F)(F)F)cc1)C2` (relative stereo) [Compound I-18, 1,3,4-Trimethyl-6-([trans-2-(2-(4-(trifluoromethyl)phenyl)cyclopropyl)]acetyl)-1,5,6,7-tetrahydro-2H-pyrrolo[3,4-b]pyridin-2-one], for which the EC50 on hM4 receptors, on rM4 receptors and at human M4 receptor was 100 to 500 nM in each case.

`Cc1c2c(n(C)c(=O)c1Cl)CN(C(=O)C[C@@H]1C[C@H]1c1ccc(C(F)(F)F)cc1)C2` (relative stereo) [Compound I-31, 3-Chloro-1,4-dimethyl-6-([trans-2-(2-(4-(trifluoromethyl)phenyl)cyclopropyl)]acetyl)-1,5,6,7-tetrahydro-2H-pyrrolo[3,4-b]pyridin-2-one]: the EC50 at hM4 receptors, on rM4 receptors and at human M4 receptor was 100 to 500 nM in each case.

As for `Cc1cc(=O)n(C)c2c1CN(C(=O)CC1CC1c1ccc(C(F)(F)F)nc1)C2` (single isomer, unassigned) [Compound I-4], the EC50 on hM4 receptors, on rM4 receptors and on human M4 receptor was above 2000 nM in each case.

As for `Cc1cc(=O)n(C)c2c1CN(C(=O)CC1CC1c1ccc(C(F)(F)F)nc1)C2` (single isomer, unassigned) [Compound I-5], the figures for the EC50 at hM4 receptors, on rM4 receptors and on human M4 receptor were 100 to 500 nM, below 100 nM and 500 to 2000 nM, respectively.

Turning to `Cc1cc(=O)n(C)c2c1CN(C(=O)CC1CC1c1ccc(C(F)(F)F)cc1)C2` (single isomer, unassigned) [Compound I-6], the EC50 at hM4 receptors, on rM4 receptors and at human M4 receptor was above 2000 nM throughout.

On to `Cc1cc(=O)n(C)c2c1CN(C(=O)CC1CC1c1cccc(C3COC3)c1)C2` (single isomer, unassigned) [Compound I-13], for which the EC50 at hM4 receptors, on rM4 receptors and at human M4 receptor was above 2000 nM each time.

Regarding `Cc1c2c(n(C)c(=O)c1C)CN(C(=O)CC1CC1c1cc(F)cc(F)c1)C2` (single isomer, unassigned) [Compound I-22], the results for the EC50 at hM4 receptors, on rM4 receptors and on human M4 receptor were above 2000 nM, above 2000 nM and 500 to 2000 nM, respectively.

As for `Cc1c2c(n(C)c(=O)c1C)CN(C(=O)CC1CC1c1cc(F)cc(F)c1)C2` (single isomer, unassigned) [Compound I-23], the EC50 on hM4 receptors, on rM4 receptors and on human M4 receptor was below 100 nM throughout.

With `Cc1c2c(n(C)c(=O)c1F)CN(C(=O)CC1CC1c1ccc(C(F)(F)F)cc1)C2` (single isomer, unassigned) [Compound I-25, 3-Fluoro-1,4-dimethyl-6-([trans-2-(2-(4-(trifluoromethyl)phenyl)cyclopropyl)]acetyl)-1,5,6,7-tetrahydro-2/I-pyrrolo[3,4-b]pyridin-2-one], the values for the EC50 on hM4 receptors, at rM4 receptors and on human M4 receptor were 500 to 2000 nM, above 2000 nM and 100 to 500 nM, respectively.

Take `Cc1c2c(n(C)c(=O)c1F)CN(C(=O)CC1CC1c1cc(F)cc(F)c1)C2` (single isomer, unassigned) [Compound I-27]: the EC50 on hM4 receptors, on rM4 receptors and at human M4 receptor was below 100 nM each time.

Regarding `COc1c2c(n(C)c(=O)c1C)CN(C(=O)CC1CC1c1ccc(C(F)(F)F)cc1)C2` (single isomer, unassigned) [Compound I-29, 4-Methoxy-1,3-dimethyl-6-([trans-2-(2-(4-(trifluoromethyl)phenyl)cyclopropyl)]acetyl)-1,5,6,7-tetrahydro-2H-pyrrolo[3,4-b]pyridin-2-one], the results for the EC50 on hM4 receptors, on rM4 receptors and at human M4 receptor were 100 to 500 nM, 100 to 500 nM and below 100 nM, respectively.

In the case of `Cc1c2c(n(C)c(=O)c1Cl)CN(C(=O)CC1CC1c1ccc(C(F)(F)F)cc1)C2` (single isomer, unassigned) [Compound I-32], the EC50 lay in the range of 500 to 2000 nM at hM4 receptors, 500 to 2000 nM on rM4 receptors and 100 to 500 nM at human M4 receptor.

With `Cc1c2c(n(C)c(=O)c1Cl)CN(C(=O)CC1CC1c1ccc(C(F)(F)F)cc1)C2` (single isomer, unassigned) [Compound I-33], the EC50 on hM4 receptors, on rM4 receptors and on human M4 receptor was below 100 nM throughout.

With `Cc1c2c(n(C)c(=O)c1Cl)CN(C(=O)CC1CC1c1cc(F)cc(F)c1)C2` (single isomer, unassigned) [Compound I-35], the EC50 on hM4 receptors is 500 to 2000 nM; at rM4 receptors, above 2000 nM; on human M4 receptor it was above 2000 nM.

As for `Cc1c2c(n(C)c(=O)c1Cl)CN(C(=O)CC1CC1c1cc(F)cc(F)c1)C2` (single isomer, unassigned) [Compound I-36], the EC50 on hM4 receptors, at rM4 receptors and on human M4 receptor was below 100 nM in each case.

Turning to `Cc1cc(=O)n(C)c2c1CN(C(=O)CC1CC1c1ccc(C(F)(F)F)nc1)C2` (stereo not drawn) [Compound I-3], the EC50 at hM4 receptors, on rM4 receptors and at human M4 receptor was 500 to 2000 nM in each case.

On to `Cc1cc(=O)n(C)c2c1CN(C(=O)CC1CC1)C2` [Compound I-10], for which the EC50 was 500 to 2000 nM on hM4 receptors, above 2000 nM at rM4 receptors and 500 to 2000 nM on human M4 receptor.

`Cc1cc(=O)n(C)c2c1CN(C(=O)CC1CC1c1cccc(C3COC3)c1)C2` (stereo not drawn) [Compound I-12]: the EC50 was 100 to 500 nM at hM4 receptors, 500 to 2000 nM at rM4 receptors and above 2000 nM on human M4 receptor.

Source of the values: patent US20260209219A1, “SUBSTITUTED TETRAHYDROPYRROLO-PYRIDINONE COMPOUNDS AND THEIR USE IN TREATING MEDICAL CONDITIONS” (Karuna Therapeutics, Inc., priority 2022, published 2026).
